From patent US20160038551A1, “STABILIZED MESEMBRINE COMPOSITIONS” (BOTANICAL RESOURCE HOLDINGS PROPRIETARY LIMITED, priority 2013, published 2016)

System: serotonin-uptake
Assay: Serotonin-uptake inhibition studies
Conditions: extensive studies conducted in respect of the present invention; no details

In the case of `COc1ccc([C@@]23CCC(=O)C[C@@H]2N(C)CC3)cc1OC` [mesembrine], the serotonin-uptake inhibition properties is reported as “do not show serotonin-uptake inhibition properties”.
